Measured values taken from patent EP2322149A1, “Methods and compositions for the treatment of ischemia” (Universidad del Pais Vasco, priority 2009, dated 2011).
Several values for one entry are separate records, joined by “and”; a condition that tells them apart may be missing. Identical values can stand only once. Entries after “also recorded” stand apart in the source; their conditions may differ. Counter-ions that a name gives are not always drawn. Like-named read-outs stand apart in the source and are kept apart here.

Columns and labels:
optic nerves = test: Optic nerve ischaemia (OGD), tissue damage by LDH release; parameters: species or system rats
Procedure: After 1h OGD at 37°C, the medium was replaced with fresh solution containing glucose and equilibrated with 95% O2, 5% CO2 and the nerves were incubated for another 2h at 37°C to simulate reperfusion.

[1] = tested on: optic nerve oligodendrocytes; test: Ca2+ imaging (fura-2) of oligodendrocytes during chemical ischaemia; assay type: cell-based, Sprague-Dawley rats
Procedure: After 2-4 days in vitro, cultures were composed of at least 98% 04/Ga1C^+ cells. No microglial cells were detected in these cultures. […] Cell death was determined 24h later using calcein-AM (Invitrogen) as previously described (Matute et al., 1997 Proc Natl Acad Sci U S A 94:8830-8835.). Antagonists were present during in vitro ischaemia and during the next 24h incubation period. […] Calcein was used to quantify the number of cells within the reading field. Fluorescence was measured as above and values were plotted as the percentage of DCFDA/calcein red-orange fluorescence versus control. […] Molecular Probes). […] The changes in the membrane potential were calculated as the red (emission at 590)/green (emission at 520) ratio in each condition and results were normalized to control. Whole cell recordings were performed at room temperature and at a holding membrane potential of -70 mV. Extracellular bath solution with a pH of 7.3 contained (in mM): […] Patch clamp pipettes (3-5 MΩ) were filled with internal solution at a pH of 7.3 containing (in mM): CsCI 140, CaC12 2, MgC12 2, HEPES 10, EGTA 11, Na-ATP 2. […] Data were analyzed with Excel and Prism software.

[2] = tested on: optic nerve oligodendrocytes; test: Whole-cell recording of ischaemic inward current in cultured oligodendrocytes (chemical ischaemia); assay type: cell-based, Sprague-Dawley rats
Procedure: After 2-4 days in vitro, cultures were composed of at least 98% 04/Ga1C^+ cells. No microglial cells were detected in these cultures. […] Cell death was determined 24h later using calcein-AM (Invitrogen) as previously described (Matute et al., 1997 Proc Natl Acad Sci U S A 94:8830-8835.). Antagonists were present during in vitro ischaemia and during the next 24h incubation period. […] Calcein was used to quantify the number of cells within the reading field. Fluorescence was measured as above and values were plotted as the percentage of DCFDA/calcein red-orange fluorescence versus control. […] Molecular Probes). […] The changes in the membrane potential were calculated as the red (emission at 590)/green (emission at 520) ratio in each condition and results were normalized to control. Whole cell recordings were performed at room temperature and at a holding membrane potential of -70 mV. Extracellular bath solution with a pH of 7.3 contained (in mM): […] Patch clamp pipettes (3-5 MΩ) were filled with internal solution at a pH of 7.3 containing (in mM): CsCI 140, CaC12 2, MgC12 2, HEPES 10, EGTA 11, Na-ATP 2. For electrophysiology monitoring, ischaemia was induced chemically by using the glycolytic blocker iodoacetate (1 mM) and the oxidative phosphorylation inhibitor antimycin (2.5 μM), and omitting glucose because recordings were performed in an open chamber where O2 can diffuse to the cells (Káradóttir et al., 2005). Recordings of ATP currents were performed in divalent cation-free extracellular solutions, obtained by omitting Ca^2+ and Mg^2+, to potentiate P2X-mediated responses (Matute et al., 1997 Proc Natl Acad Sci U S A 94:8830-8835.). […] Molecular Probes, Inc., Eugene, OR) in culture medium for 30 min at 37 °C. Experiments were carried out in a coverslip chamber continuously perfused with a buffer containing 20 mM HEPES, 2 mM CaC12, 10 mM glucose in HBSS at 1 ml/min. The perfusion chamber was mounted on the stage of a Zeiss inverted epifluorescence microscope (Axiovert 35), equipped with a 150 W xenon lamp Polychrome IV (TILL Photonics GMBH) and a Plan Neofluar 40x oil immersion objective (Zeiss, Germany). Cells were visualized with a high resolution digital B/W CCD camera (ORCA; Hamamatsu Photonics Iberica, Barcelona, Spain) and image acquisition and data analysis were carried out using the AquaCosmos software program (Hamamatsu Photonics Iberica). Images were acquired every 30 ms at 37°C and ischaemia was induced as above. […] At the end of the assay, in situ calibration was carried out with the successive addition of […] and 2M Tris/50 mM EGTA, pH 8.5. Data were analyzed with Excel and Prism software.

P2X7 = target: T1, P2X7 (Homo sapiens, UniProt Q99572); conditions: cited from earlier work
T1 sequence (Q99572 1-595): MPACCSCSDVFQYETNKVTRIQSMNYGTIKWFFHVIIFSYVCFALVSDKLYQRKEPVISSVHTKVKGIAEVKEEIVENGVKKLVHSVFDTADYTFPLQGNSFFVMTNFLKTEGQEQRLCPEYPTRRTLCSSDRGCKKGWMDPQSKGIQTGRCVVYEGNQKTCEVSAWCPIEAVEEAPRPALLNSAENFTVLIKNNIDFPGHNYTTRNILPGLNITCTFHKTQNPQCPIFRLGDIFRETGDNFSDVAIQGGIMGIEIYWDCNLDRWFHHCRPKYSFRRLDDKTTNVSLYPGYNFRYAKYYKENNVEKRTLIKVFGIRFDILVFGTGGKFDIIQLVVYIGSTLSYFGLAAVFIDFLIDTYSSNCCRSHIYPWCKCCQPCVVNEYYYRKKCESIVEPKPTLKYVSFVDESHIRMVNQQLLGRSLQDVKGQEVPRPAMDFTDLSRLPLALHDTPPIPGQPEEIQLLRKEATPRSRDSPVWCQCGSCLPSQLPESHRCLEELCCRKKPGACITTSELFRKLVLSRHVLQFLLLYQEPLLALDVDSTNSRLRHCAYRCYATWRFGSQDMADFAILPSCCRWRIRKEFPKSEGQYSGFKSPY

optic nerve [3] = tested on: optic nerve
Pannexin hemichannels = conditions: cited from earlier work
optic nerve [4] = test: Compound action potential of isolated optic nerves perfused with ATP; parameters: species or system C57BL6 mice; conditions: ATP 10 mM, 3h (180 min), 37°C, compared to matched controls
[5] = tested on: optic nerve oligodendrocytes; test: Oxygen and glucose deprivation (OGD) cell death in oligodendrocyte cultures (calcein-AM); assay type: cell-based, Sprague-Dawley rats; conditions: 1h OGD, calcein 24h later; PPADS 100 µM, BBG 50 nM, CNQX 30 µM, APV 100 µM, apyrase 20 U/ml, ARL67156 100 µM, CBX 20 µM, FFA 100 µM, MFQ 1 nM
Procedure: Primary cultures of oligodendrocytes derived from optic nerves of 12 day-old Sprague-Dawley rats were obtained as previously described (Matute et al., 1997 Proc Natl Acad Sci U S A 94:8830-8835.).Cells were maintained at 37°C and 5% CO2 in a chemically defined medium (Matute et al., 1997 Proc Natl Acad Sci U S A 94:8830-8835.). After 2-4 days in vitro, cultures were composed of at least 98% 04/Ga1C^+ cells. No microglial cells were detected in these cultures. […] Cell death was determined 24h later using calcein-AM (Invitrogen) as previously described (Matute et al., 1997 Proc Natl Acad Sci U S A 94:8830-8835.). Antagonists were present during in vitro ischaemia and during the next 24h incubation period. […] To assay the levels of reactive oxygen species (ROS), cells were loaded with 40 µM 2',7'- dichlorodihyfluoresceindiacetate (DCFDA; Invitrogen) and 1 µM calcein red-orange (Molecular Probes) immediately after OGD. Calcein was used to quantify the number of cells within the reading field. Fluorescence was measured as above and values were plotted as the percentage of DCFDA/calcein red-orange fluorescence versus control. The changes in mitochondrial membrane potential were monitored with 5,5',6,6'-tetrachloro-1,1',3,3'-tetraethylbenzimidazolcarbocyanine iodide (JC-1; Molecular Probes). Immediately after OGD, cells were loaded with JC-1 (3 µM) at 37°C for 30 min. The changes in the membrane potential were calculated as the red (emission at 590)/green (emission at 520) ratio in each condition and results were normalized to control.

[6] = tested on: optic nerve oligodendrocytes; test: Reactive oxygen species (DCFDA) after OGD in oligodendrocyte cultures; assay type: cell-based, Sprague-Dawley rats; conditions: 1 h OGD; BBG 50 nM, PPADS 100 µM
Procedure: (§1) Primary cultures of oligodendrocytes derived from optic nerves of 12 day-old Sprague-Dawley rats were obtained as previously described (Matute et al., 1997 Proc Natl Acad Sci U S A 94:8830-8835.).Cells were maintained at 37°C and 5% CO2 in a chemically defined medium (Matute et al., 1997 Proc Natl Acad Sci U S A 94:8830-8835.). After 2-4 days in vitro, cultures were composed of at least 98% 04/Ga1C^+ cells. No microglial cells were detected in these cultures. […] Cell death was determined 24h later using calcein-AM (Invitrogen) as previously described (Matute et al., 1997 Proc Natl Acad Sci U S A 94:8830-8835.). Antagonists were present during in vitro ischaemia and during the next 24h incubation period. […] Calcein was used to quantify the number of cells within the reading field. Fluorescence was measured as above and values were plotted as the percentage of DCFDA/calcein red-orange fluorescence versus control. The changes in mitochondrial membrane potential were monitored with 5,5',6,6'-tetrachloro-1,1',3,3'-tetraethylbenzimidazolcarbocyanine iodide (JC-1; Molecular Probes). […] The changes in the membrane potential were calculated as the red (emission at 590)/green (emission at 520) ratio in each condition and results were normalized to control.

[7] = tested on: AMPA and kainate receptors; test: Glutamate receptor agonist (AMPA, kainate) induced oligodendrocyte death (calcein fluorescence); assay type: cell-based, Sprague-Dawley rats; conditions: AMPA (100 µM) + cyclothiazide (100 µM), or kainate (3 mM) + GYKI 53655 (50 µM); PPADS 100 µM, BBG 50 nM
Procedure: as §1

P2X3 = target: T2, P2X3 (Homo sapiens, UniProt P56373); conditions: read-out: IC50 P2X3; cited from earlier work
T2 sequence (P56373 1-397): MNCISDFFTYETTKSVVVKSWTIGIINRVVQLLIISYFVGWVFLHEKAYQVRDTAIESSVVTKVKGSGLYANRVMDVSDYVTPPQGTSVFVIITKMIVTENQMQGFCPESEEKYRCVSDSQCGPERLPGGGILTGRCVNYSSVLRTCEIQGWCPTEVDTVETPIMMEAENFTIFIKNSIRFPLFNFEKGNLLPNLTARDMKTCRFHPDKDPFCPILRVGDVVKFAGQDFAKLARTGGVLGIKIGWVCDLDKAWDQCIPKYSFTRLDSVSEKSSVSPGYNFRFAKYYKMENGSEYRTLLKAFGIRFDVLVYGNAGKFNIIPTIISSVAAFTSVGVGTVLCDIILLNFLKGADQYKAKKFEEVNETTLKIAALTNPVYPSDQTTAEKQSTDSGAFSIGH

[8] = tested on: optic nerve oligodendrocytes; test: Mitochondrial membrane potential (JC-1) after OGD in oligodendrocyte cultures; assay type: cell-based, Sprague-Dawley rats; conditions: 1 h OGD; BBG 50 nM, PPADS 100 µM
Procedure: as §1

P2X4 = target: T3, P2X4 (Homo sapiens, UniProt Q99571); conditions: read-out: IC50 P2X4; cited from earlier work
T3 sequence (Q99571 1-388): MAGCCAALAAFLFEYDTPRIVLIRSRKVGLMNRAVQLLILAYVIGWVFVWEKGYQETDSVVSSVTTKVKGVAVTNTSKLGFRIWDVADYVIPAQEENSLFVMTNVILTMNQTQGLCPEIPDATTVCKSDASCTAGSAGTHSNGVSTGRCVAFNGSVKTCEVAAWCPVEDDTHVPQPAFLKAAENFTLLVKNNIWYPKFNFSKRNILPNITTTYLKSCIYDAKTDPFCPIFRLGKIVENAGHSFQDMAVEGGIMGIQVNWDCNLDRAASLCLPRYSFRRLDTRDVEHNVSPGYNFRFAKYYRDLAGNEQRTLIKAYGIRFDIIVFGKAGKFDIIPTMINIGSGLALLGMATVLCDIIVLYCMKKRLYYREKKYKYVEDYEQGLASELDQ

Compound: Nc1ncnc2c1ncn2[C@@H](C=O)O[C@@H](C=O)COP(=O)(O)OP(=O)(O)OP(=O)(O)O [o-ATP, the sodium salt of adenosine 5-triphosphate, oxidized with periodate]
- OGD-induced damage at all developmental stages (optic nerves): decreased; also recorded: protected
- ischaemia-induced damage to optic nerves (LDH release) (optic nerves): prevented; also recorded: reduced
- increase in [Ca2+]i caused by ischaemia [1]: significantly blocked; also recorded: significantly reduced
- ischaemic inward currents [2]: significantly reduced
- IC50 (P2X7): 5 µM
- recovery of axon function (CAP area) after the ischaemic insult (optic nerve [3]): significantly improved

Compound: CC1(C)[C@@H](OC(=O)CCC(=O)O)CC[C@]2(C)[C@H]3C(=O)C=C4[C@@H]5C[C@@](C)(C(=O)O)CC[C@]5(C)CC[C@@]4(C)[C@]3(C)CC[C@@H]12 [Carbenoxolone disodium]
- IC50 (Pannexin hemichannels): ~5 µM

Compound: Nc1ncnc2c1ncn2[C@@H]1O[C@H](COP(=O)(O)OP(=O)(O)OP(=O)(O)O)[C@@H](O)[C@H]1O [ATP]
- reduction in CAP area (optic nerve [4]): 50% and 50.1 ± 10.5%

Compound: CCOc1ccc(Nc2ccc(C(=C3C=CC(=[N+](CC)Cc4cccc(S(=O)(=O)[O-])c4)C=C3C)c3ccc(N(CC)Cc4cccc(S(=O)(=O)O)c4)cc3C)cc2)cc1 [BBG, Coomassie brilliant blue G]
- ischaemia-induced damage to optic nerves (LDH release) (optic nerves; P28 rat optic nerves, 1h OGD + 2h reperfusion, PPADS 1 mM, BBG 50 nM, oATP 1 mM, apyrase 20 U/ml, MFQ 1 µM, CBX 100 µM, FFA 1 mM): prevented; also recorded: reduced
- OGD-induced damage at all developmental stages (optic nerves; premyelinating (P7), myelinating (P14) and mature (P28) optic nerves): decreased; also recorded: protected
- OGD-induced oligodendrocyte cell death [5]: significantly reduced
- generation of radical oxygen species (ROS) [6]: prevented
- OGD-induced currents ([2]; BBG 50 nM, CNQX (30 µM) plus APV (100 µM) applied before the onset of ischemia): inhibited
- OGD currents after drug application versus OGD currents before drug application ([2]; after washing the antagonists out, average over BBG and PPADS, n= 15): 134 ± 32%
- ischaemic inward currents ([2]; chemical ischaemia (iodoacetate, antimycin, no glucose), -70 mV, PPADS 100 µM, oATP 1 mM, BBG 50 nM): significantly reduced; also recorded: partial block
- glutamate receptor-induced oligodendrocyte death [7]: did not significantly inhibit
- IC50 (P2X3): > 10 µM
- mitochondrial depolarization [8]: prevented
- recovery of axon function (CAP area) after the ischaemic insult (optic nerve [3]; 60 min after 1 h OGD, BBG 50 nM, o-ATP 1 mM): significantly improved

Compound: O=C(Nc1cccc(C(=O)Nc2ccc(S(=O)(=O)O)c3cc(S(=O)(=O)O)cc(S(=O)(=O)O)c23)c1)Nc1cccc(C(=O)Nc2ccc(S(=O)(=O)O)c3cc(S(=O)(=O)O)cc(S(=O)(=O)O)c23)c1 [NF023]
- IC50 (P2X4): > 100 µM
- IC50 (P2X3): < 29 µM
